Data: patent US20100184807A1, “Methods to inhibit tumor cell growth by using proton pump inhibitors” (Bio-Quant, Inc., priority 2008, published 2010)

Key:
Assay in all cases: MTT tumor cell growth assay
Assay type in all cases: cell-based
[1] = test system: MDA-MB-435 (melanoma); conditions: MDA-MB-435 cells, lansoprazole 1-100 μM, 48 hours
Protocol: (§1) In one study, adherent cells were plated approximately 16-24 hours before the day of the experiment in 180 μl growth media. On the day of the experiment, the plated adherent cells were analyzed and counted and suspension cells were plated in 180 μl growth media. 10× lansoprazole compounds and vehicle was prepared. The 10× lansoprazole compounds were prepared by diluting lansoprazole to final concentrations of 100 μM, 30 μM, 10 μM, 3 μM, and 1 μM. A vehicle was prepared by preparing a solution of PBS, equivalent to the volume used for 10 μM lansoprazole wherein the 1× solution constitutes ˜0.06% PBS. 10 μl of the various 10× lansoprazole solutions and the vehicle were added to the cells. The cells were incubated at 37° C., 5% CO2 for 48 hours. The media was then aspirated. The cell suspension was then spun at 1500 RPM for 10 minutes. The media was slowly removed. 200 μl of MTT solution was added to each well with a concentration of 0.863 mg/ml MTT in the growth media. The cells were incubated at 37° C., 5% CO2 for 4 hours and the medium is then aspirated. The plate containing the cell suspension was then spun at 1500 RPM for 10 minutes. The media was slowly removed using a multichannel pipettor. 100 μl of DMSO was then added to each well. The cells were incubated at 37° C., 5% CO2 for 5 minutes and the absorbance was obtained at 560 nm using a Dynex Opsys MR plate reader. The cells used for this procedure were the following cell lines: IGROV1 (ovarian cancer); OVCAR 8 (ovarian cancer); ES-2 (ovarian cancer); CAOV3 (ovarian cancer); OVCAR5 (ovarian cancer); SUDHL4 (lymphoma); RPMI8226 (myeloma); RPMI6666 (Hodgkin's lymphoma); NC37 (lymphoma); GDM-1 (leukemia); MC/CAR (prostate cancer); DU-145 (prostate cancer), J45-01 (leukemia), MOLT3 (leukemia), HUT78, J-gamma-1 (leukemia), MCF7 […], COL0205 (colon cancer), HL60 CLONE 15 (leukemia), T47D (breast cancer), P116 (intestinal cancer), KU812 (leukemia), SW620 (colon cancer), MK92-M1 (lymphoma), MV-4-11 (leukemia), HS578T (breast cancer), HT29 (colon cancer), HCT 116 (colon cancer), CAKI-1 (kidney cancer), A549 (lung cancer), H460 (lung cancer), A3 (colon cancer), MDA-MB231 […], MALME 3M (melanoma), RXF393 (kidney cancer), RS4.11 (leukemia), PC3 (prostate cancer), OVCAR3 (ovarian cancer), MDA-MB435 (melanoma), HUT102 (lymphoma), HL60 (leukemia), CCRF-CEM (leukemia), HUT78 (lymphoma), 786-O (kidney cancer), ACHN (kidney cancer), A498 (kidney cancer), H226 (lung cancer), H522 (lung cancer), HOP92 (lung cancer), SNB 19 (brain cancer), OVCAR4 (ovarian cancer), H9 (lymphoma), UO-31 (kidney cancer), HH (lymphoma), DAUDI (leukemia), LOXIMVI (melanoma), NAMALWA (lymphoma), EKVX (lung cancer), DOHH2 (lymphoma), SNB75 (brain cancer), SKMEL28 (melanoma), SKMEL5 (melanoma), SKMEL2 (melanoma), M14 (melanoma), UACC 257 (melanoma), H332M (lung cancer), KM12 (colon cancer), HCC2998 (colon cancer), G401 (kidney cancer), RS1184 (lymphoma), MC116 (leukemia), MOLT4 (leukemia), JM1 (liver cancer), HOP-62 (lung cancer), HCT-15 (colon cancer), SF-539 (brain cancer), SF295 (brain cancer), ST486 (lymphoma), U251 (brain cancer), and UACC-62 (melanoma).

[2] = test system: HT29 (colon cancer); conditions: HT29 cells, lansoprazole 1-100 μM, 48 hours
Protocol: as §1

[3] = test system: HOP-62 (lung cancer); conditions: HOP-62 cells, lansoprazole 1-100 μM, 48 hours
Protocol: as §1

[4] = test system: MV-4-11 (leukemia); conditions: MV-4-11 cells, lansoprazole 1-100 μM, 48 hours
Protocol: as §1

[5] = test system: PC3 (prostate cancer); conditions: PC3 cells, lansoprazole 1-100 μM, 48 hours
Protocol: as §1

[6] = test system: A3 (colon cancer); conditions: A3 cells, lansoprazole 1-100 μM, 48 hours
Protocol: as §1

[7] = test system: SKMEL5 (melanoma); conditions: SKMEL5 cells, lansoprazole 1-100 μM, 48 hours
Protocol: as §1

[8] = test system: DOHH2 (lymphoma); conditions: DOHH2 cells, lansoprazole 1-100 μM, 48 hours
Protocol: as §1

[9] = test system: J-gamma-1 (leukemia); conditions: J-gamma-1 cells, lansoprazole 1-100 μM, 48 hours
Protocol: as §1

[10] = test system: MOLT3 (leukemia); conditions: MOLT3 cells, lansoprazole 1-100 μM, 48 hours
Protocol: as §1

[11] = test system: HL60 clone 15 (leukemia); conditions: HL60 clone 15 cells, lansoprazole 1-100 μM, 48 hours
Protocol: as §1

[12] = test system: ST486 (lymphoma); conditions: ST486 cells, lansoprazole 1-100 μM, 48 hours
Protocol: as §1

[13] = test system: H322M; conditions: H322M cells, lansoprazole 1-100 μM, 48 hours
Protocol: as §1

[14] = test system: HL60 (leukemia); conditions: HL60 cells, lansoprazole 1-100 μM, 48 hours
Protocol: as §1

[15] = test system: RXF393 (kidney cancer); conditions: RXF393 cells, lansoprazole 1-100 μM, 48 hours
Protocol: as §1

[16] = test system: IGROV 1 (ovarian cancer); conditions: IGROV 1 cells, lansoprazole 1-100 μM, 48 hours
Protocol: as §1

[17] = test system: SKMEL2 (melanoma); conditions: SKMEL2 cells, lansoprazole 1-100 μM, 48 hours
Protocol: as §1

[18] = test system: UACC257 (melanoma); conditions: UACC257 cells, lansoprazole 1-100 μM, 48 hours
Protocol: as §1

Measured: tumor cell growth reduction

Cc1c(OCC(F)(F)F)ccnc1C[S+]([O-])c1nc2ccccc2[nH]1 (stereo not drawn) [lansoprazole]
significant tumor cell growth reduction: all assays above
